The target of this assay is human CXCR3-A receptor (Homo sapiens (Human), UniProt P49682). Briefly: 125I-CXCL10 competition radioligand binding assay.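 Further: One-hour incubation of membranes with tracer, bound radioligand separated by glass fibre filtration, IC50 derived from four-parameter nonlinear fit of competition curves.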 To be noted: displacement of 125I-CXCL10 from membranes of CHO cells expressing human recombinant CXCR3-A. (In general: Displacement assays read how much labelled ligand stays bound in the presence of the test substance.)
human CXCR3-A receptor, sequence (P49682 whole entry): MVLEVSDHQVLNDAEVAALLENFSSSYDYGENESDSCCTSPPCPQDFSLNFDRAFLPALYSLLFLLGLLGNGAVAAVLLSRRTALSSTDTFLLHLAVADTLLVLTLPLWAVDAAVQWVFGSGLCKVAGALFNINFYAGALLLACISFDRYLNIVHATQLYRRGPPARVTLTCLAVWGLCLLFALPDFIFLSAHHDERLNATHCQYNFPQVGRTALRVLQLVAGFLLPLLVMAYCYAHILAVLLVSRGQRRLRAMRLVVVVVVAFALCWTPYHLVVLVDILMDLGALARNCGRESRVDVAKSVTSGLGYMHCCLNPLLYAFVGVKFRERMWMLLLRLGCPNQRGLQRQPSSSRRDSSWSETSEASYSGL
For `CCCN(Cc1ccc(CCCN2C(=O)CCC2=O)c(OC)c1)C(CC(=O)O)c1ccc(Cl)cc1` (stereo not drawn) [Example 133, 3-(4-Chloro-phenyl)-3-({4-[3-(2,5-dioxo-pyrrolidin-1-yl)-propyl]-3-methoxy-benzyl}-propyl-amino)-propionic acid], the IC50 is 177 nM. Consider `COc1cc(CN(CC(C)C)C(CC(=O)O)c2ccc(Cl)cc2)ccc1CCCN1C(=O)CCC1=O` (stereo not drawn) [Example 134, 3-(4-Chloro-phenyl)-3-({4-[3-(2,5-dioxo-pyrrolidin-1-yl)-propyl]-3-methoxy-benzyl}-isobutyl-amino)-propionic acid], for which the concentration for half-maximal inhibition (IC50) was 296 nM. On to `CCCCN(Cc1ccc(CCCN2C(=O)CCC2=O)c(OC)c1)C(CC(=O)O)c1ccc(Cl)cc1` (stereo not drawn) [Example 135, 3-(Butyl-{4-[3-(2,5-dioxo-pyrrolidin-1-yl)-propyl]-3-methoxy-benzyl}-amino)-3-(4-chloro-phenyl)-propionic acid], for which the 50% inhibitory concentration (IC50) is 116 nM. The figure for `Cc1cc(CN(CC(C)C)C(CC(=O)O)c2ccc(Cl)cc2)ccc1CCCN1C(=O)CCC1=O` (stereo not drawn) [Example 137, 3-(4-Chloro-phenyl)-3-({4-[3-(2,5-dioxo-pyrrolidin-1-yl)-propyl]-3-methyl-benzyl}-isobutyl-amino)-propionic acid] is 240 nM. The result for `COc1cc(CN(C2CCC2)C(CC(=O)O)c2ccc(Cl)cc2)ccc1CCCN1C(=O)CCC1=O` (stereo not drawn) [Example 138, 3-(4-Chloro-phenyl)-3-(cyclobutyl-{4-[3-(2,5-dioxo-pyrrolidin-1-yl)-propyl]-3-methoxy-benzyl}-amino)-propionic acid] reads 190 nM; that for `COc1cc(CN(CC2CCCC2)C(CC(=O)O)c2ccc3c(c2)CCO3)ccc1CCCN1C(=O)CCC1=O` (stereo not drawn) [Example 139, 3-(Cyclopentylmethyl-{4-[3-(2,5-dioxo-pyrrolidin-1-yl)-propyl]-3-methoxy-benzyl}-amino)-3-(2,3-dihydro-benzofuran-5-yl)-propionic acid], 54 nM. The result for `CCCCN(Cc1ccc(CCCN2C(=O)CCC2=O)c(OC)c1)C(CC(=O)O)c1ccc2c(c1)CCO2` (stereo not drawn) [Example 140, 3-(Butyl-{4-[3-(2,5-dioxo-pyrrolidin-1-yl)-propyl]-3-methoxy-benzyl}-amino)-3-(2,3-dihydro-benzofuran-5-yl)-propionic acid] reads 51 nM. In the case of `COc1cc(CN(CC(C)C)C(CC(=O)O)c2ccc3c(c2)CCO3)ccc1CCCN1C(=O)CCC1=O` (stereo not drawn) [Example 141, 3-(2,3-Dihydro-benzofuran-5-yl)-3-({4-[3-(2,5-dioxo-pyrrolidin-1-yl)-propyl]-3-methoxy-benzyl}-isobutyl-amino)-propionic acid], the half-maximal inhibitory concentration (IC50) is 43 nM. Turning to `Cc1cc(CN(CC2CC2)C(CC(=O)O)c2ccc3c(c2)CCO3)ccc1CCCN1C(=O)CCC1=O` (stereo not drawn) [Example 142, 3-(Cyclopropylmethyl-{4-[3-(2,5-dioxo-pyrrolidin-1-yl)-propyl]-3-methyl-benzyl}-amino)-3-(2,3-dihydro-benzofuran-5-yl)-propionic acid], the 50% inhibitory concentration (IC50) is 211 nM.

In the case of `Cc1cc(CN(CC2CCCCC2)C(CC(=O)O)c2ccc3c(c2)CCO3)ccc1CCCN1C(=O)CCC1=O` (stereo not drawn) [Example 143, 3-(Cyclohexylmethyl-{4-[3-(2,5-dioxo-pyrrolidin-1-yl)-propyl]-3-methyl-benzyl}-amino)-3-(2,3-dihydro-benzofuran-5-yl)-propionic acid], the half-maximal inhibitory concentration (IC50) was 211 nM. Regarding `CCCCN(Cc1ccc(OCCN2C(=O)CCC2=O)c(C)c1)C(CC(=O)O)c1ccc2c(c1)CCO2` (stereo not drawn) [Example 145, 3-(Butyl-{4-[2-(2,5-dioxo-pyrrolidin-1-yl)-ethoxy]-3-methyl-benzyl}-amino)-3-(2,3-dihydro-benzofuran-5-yl)-propionic acid], the IC50 amounted to 38 nM. The figure for `COc1cc(CN(CC2CCCC2)C(CC(=O)O)c2ccc3c(c2)CCO3)ccc1OCCN1C(=O)CCC1=O` (stereo not drawn) [Example 146, 3-(Cyclopentylmethyl-{4-[2-(2,5-dioxo-pyrrolidin-1-yl)-ethoxy]-3-methoxy-benzyl}-amino)-3-(2,3-dihydro-benzofuran-5-yl)-propionic acid] is 56 nM. The figure for `Cc1cc(CN(CC2CCCC2)C(CC(=O)O)c2ccc3c(c2)CCO3)ccc1OCCN1C(=O)CCC1=O` (stereo not drawn) [Example 147, 3-(Cyclopentylmethyl-{4-[2-(2,5-dioxo-pyrrolidin-1-yl)-ethoxy]-3-methyl-benzyl}-amino)-3-(2,3-dihydro-benzofuran-5-yl)-propionic acid] is 46 nM; for `COc1cc(CN(CC2CCCCC2)C(CC(=O)O)c2ccc3c(c2)CCO3)ccc1OCCN1C(=O)CCC1=O` (stereo not drawn) [Example 148, 3-(Cyclohexylmethyl-{4-[2-(2,5-dioxo-pyrrolidin-1-yl)-ethoxy]-3-methoxy-benzyl}-amino)-3-(2,3-dihydro-benzofuran-5-yl)-propionic acid] it is 28 nM; for `Cc1cc(CN(CC2CCCCC2)C(CC(=O)O)c2ccc3c(c2)CCO3)ccc1OCCN1C(=O)CCC1=O` (stereo not drawn) [Example 149, 3-(Cyclohexylmethyl-{4-[2-(2,5-dioxo-pyrrolidin-1-yl)-ethoxy]-3-methyl-benzyl}-amino)-3-(2,3-dihydro-benzofuran-5-yl)-propionic acid] it is 72 nM. The result for `CCCCN(Cc1ccc(OCCN2C(=O)CCC2=O)c(OC)c1)C(CC(=O)O)c1ccc(Cl)cc1Cl` (stereo not drawn) [Example 150, 3-(Butyl-{4-[2-(2,5-dioxo-pyrrolidin-1-yl)-ethoxy]-3-methoxy-benzyl}-amino)-3-(2,4-dichloro-phenyl)-propionic acid] reads 140 nM. As for `COc1cc(CN(C)C(c2ccc(Cl)cc2)C(C)C(=O)O)ccc1OCCn1c(=O)ccn(C)c1=O` (stereo not drawn) [Example 152, 3-(4-Chloro-phenyl)-3-({3-methoxy-4-[2-(3-methyl-2,6-dioxo-3,6-dihydro-2H-pyrimidin-1-yl)-ethoxy]-benzyl}-methyl-amino)-2-methyl-propionic acid], the half-maximal inhibitory concentration (IC50) was 754 nM.

Regarding `CCN(Cc1ccc(OCCn2c(=O)ccn(C)c2=O)c(OC)c1)C(c1ccc(Cl)cc1)C(C)C(=O)O` (stereo not drawn) [Example 153, 3-(4-Chloro-phenyl)-3-(ethyl-{3-methoxy-4-[2-(3-methyl-2,6-dioxo-3,6-dihydro-2H-pyrimidin-1-yl)-ethoxy]-benzyl}-amino)-2-methyl-propionic acid], the 50% inhibitory concentration (IC50) stood at 635 nM. The result for `CCN(Cc1ccc(OCCn2c(=O)ccn(C)c2=O)c(C)c1)C(CC(=O)O)c1ccc2c(c1)CCO2` (stereo not drawn) [Example 154, 3-(2,3-Dihydro-benzofuran-5-yl)-3-(ethyl-{3-methyl-4-[2-(3-methyl-2,6-dioxo-3,6-dihydro-2H-pyrimidin-1-yl)-ethoxy]-benzyl}-amino)-propionic acid] reads 58 nM; that for `CCCN(Cc1ccc(OCCn2c(=O)ccn(C)c2=O)c(C)c1)C(CC(=O)O)c1ccc2c(c1)CCO2` (stereo not drawn) [Example 155, 3-(2,3-Dihydro-benzofuran-5-yl)-3-({3-methyl-4-[2-(3-methyl-2,6-dioxo-3,6-dihydro-2H-pyrimidin-1-yl)-ethoxy]-benzyl}-propyl-amino)-propionic acid], 529 nM; that for `COc1cc(CN(CC2CC2)C(CC(=O)O)c2ccc(Cl)cc2Cl)ccc1OCCn1c(=O)ccn(C)c1=O` (stereo not drawn) [Example 156, 3-(Cyclopropylmethyl-{3-methoxy-4-[2-(3-methyl-2,6-dioxo-3,6-dihydro-2H-pyrimidin-1-yl)-ethoxy]-benzyl}-amino)-3-(2,4-dichloro-phenyl)-propionic acid], 120 nM.

The IC50 is the concentration that inhibits the measured activity by half.

(Values after patent US9447038B2 (SANOFI, priority 2012, dated 2016).)
